From patent US20220330549A1, “USE OF N-BENZYLBENZAMIDE-BASED COMPOUND AS HERBICIDE” (Northwest A&F University, priority 2020, published 2022)

Legend:
Type in all cases: in vivo
Amaranthus retroflexus [1] = assay: Herbicidal activity test for indoor post-emergence spraying on stems and leaves; set-up: key: grade level by weed remaining vs blank control, e.g. 5 = 10.1-15%; conditions: 150 g a.i./ha, visual inspection 21 days after treatment
Outline: (§1)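 Post-emergence stem and leaf spray in an indoor test following NY/T 1155.4-2006, with weeds sown and grown in a greenhouse. Effect scored visually 21 days after treatment as graded levels, each level set by the percentage of weed remaining relative to the blank control area.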

Piemarker [2] = assay: as above; set-up: key: grade level by weed remaining vs blank control, e.g. 5 = 10.1-15%; conditions: 150 g a.i./ha, visual inspection 21 days after treatment
Outline: as §1

green bristlegrass [3] = assay: as above; set-up: key: grade level by weed remaining vs blank control, e.g. 5 = 10.1-15%; conditions: 150 g a.i./ha, visual inspection 21 days after treatment
Outline: as §1

Barnyard grass [4] = assay: as above; set-up: key: grade level by weed remaining vs blank control, e.g. 5 = 10.1-15%; conditions: 150 g a.i./ha, visual inspection 21 days after treatment
Outline: as §1

Digitaria sanguinalis [5] = assay: as above; set-up: key: grade level by weed remaining vs blank control, e.g. 5 = 10.1-15%; conditions: 150 g a.i./ha, visual inspection 21 days after treatment
Outline: as §1

Humulus scandens [6] = assay: as above; set-up: key: grade level by weed remaining vs blank control, e.g. 5 = 10.1-15%; conditions: 150 g a.i./ha, visual inspection 21 days after treatment
Outline: as §1

Amaranthus retroflexus [7] = assay: Herbicidal activity test for indoor pre-emergence soil treatment; set-up: key: 1-9 levels; higher = more weed remaining vs blank control; conditions: 150 g a.i./ha, visual inspection 21 days after treatment
Outline: (§2)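 Pre-emergence test following NY/T 1155.3-2006: weed seeds were sown in moistened neutral sandy loam (≤2% organic matter) and covered with 0.5–2.0 cm of soil. After 24 h, the soil was sprayed with a 10% EC diluted in water at 150 g(a.i.)/ha. Damage was scored visually on a 1–9 scale at 21 days.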

Digitaria sanguinalis [8] = assay: as above; set-up: key: 1-9 levels; higher = more weed remaining vs blank control; conditions: 150 g a.i./ha, visual inspection 21 days after treatment
Outline: as §2

Piemarker [9] = assay: as above; set-up: key: level 1-9; higher = more weed remaining vs blank control; conditions: 150 g a.i./ha, visual inspection 21 days after treatment
Outline: as §2

green bristlegrass [10] = assay: as above; set-up: key: level 1-9; higher = more weed remaining vs blank control; conditions: 150 g a.i./ha, visual inspection 21 days after treatment
Outline: as §2

Barnyard grass [11] = assay: as above; set-up: key: level 1-9; higher = more weed remaining vs blank control; conditions: 150 g a.i./ha, visual inspection 21 days after treatment
Outline: as §2

Humulus scandens [12] = assay: as above; conditions: 150 g a.i./ha, visual inspection 21 days after treatment
Outline: as §2

Gramineae = assay: Post-emergence herbicidal activity test in a paddy field; set-up: key: level scale; higher level = more weed left vs blank control; conditions: 150 g a.i./ha (penoxsulam control 250 g(a.i.)/h)
Outline: (§3)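 Efficacy was visually estimated 15 and 30 days after spraying, grading weed coverage relative to an untreated neighbouring plot (level 2 = 0 to 2.5%, level 9 = 67.6 to 100%). Treatments were 150 g(a.i.)/ha from 10% emulsifiable concentrates applied at the 4-5 leaf rice stage, four repeats of 50 m^2 each.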

Cyperaceae = assay: as above; set-up: key: level scale; higher level = more weed left vs blank control; conditions: 150 g a.i./ha (penoxsulam control 250 g(a.i.)/h)
Outline: as §3

Broadleaf weed = assay: as above; set-up: key: level scale; higher level = more weed left vs blank control; conditions: 150 g a.i./ha (penoxsulam control 250 g(a.i.)/h)
Outline: as §3

Amaranthus retroflexus [13] = assay: Field test for weed control in a corn field; conditions: 150 g a.i./ha, 30 days after treatment
Outline: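 Field efficacy trial in a corn field following GB/T 17980.42-2000. Test compounds were formulated as 10% emulsifiable concentrates, diluted in water and sprayed post-emergence when corn had 2 to 5 leaves. Each treatment covered 20 m^2 with 4 replicates. A 25% mesotrione oil dispersion served as control. Damage to Amaranthus retroflexus was rated on a 1-9 scale against untreated blank plots.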

goosegrass = assay: Field test for weed control in a corn field; conditions: 150 g a.i./ha, after treatment
Outline: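 Weed control efficacy against goosegrass was tested in a corn field following GB/T 17980.42-2000. Compounds formulated as 10% emulsifiable concentrates were diluted in water and sprayed post-emergence at 150 g(a.i.)/ha when corn had 2 to 5 leaves, with 4 replicates of 20 m^2 plots. Herbicidal activity was rated on a 1-9 scale by damage symptoms and severity.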

Chenopodium album = assay: Field test for weed control in a corn field; conditions: 150 g a.i./ha, after treatment
Outline: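 A corn-field efficacy trial following GB/T 17980.42-2000 tested post-emergence control of Chenopodium album. Test compounds formulated as 10% emulsifiable concentrates were diluted in water and sprayed at 150 g(a.i.)/ha when the corn had 2 leaves to 5 leaves, on 20 m^2 plots with 4 replicates. Herbicidal activity was rated on a 1-9 scale by damage symptoms and severity.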

green bristlegrass [14] = assay: Field test for weed control in a corn field; conditions: 150 g a.i./ha, after treatment
Outline: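 Post-emergence weed control was tested in a corn field following GB/T 17980.42-2000. When the corn had 2 leaves to 5 leaves after sowing, 10% emulsifiable concentrates diluted in water were sprayed at 150 g(a.i.)/ha on 20 m^2 plots, four replicates per treatment. Effects on green bristlegrass were scored on a 1-9 damage scale relative to the blank control area.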

Portulaca oleracea = assay: Field test for weed control in a corn field; conditions: 150 g a.i./ha, after treatment
Outline: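 Field efficacy trial in corn following GB/T 17980.42-2000. Test compounds were prepared as 10% emulsifiable concentrates, diluted in water, and sprayed at 150 g(a.i.)/ha when corn had 2 to 5 leaves after sowing. Plots were 20 m^2 with 4 replicates per treatment. Herbicidal activity was scored on a 1-9 scale from weed damage symptoms and severity.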

Barnyard grass [15] = assay: Field test for weed control in a corn field; conditions: 150 g a.i./ha, 30 days after treatment
Outline: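 Corn-field efficacy trial following GB/T 17980.42-2000. Test compounds were formulated as 10% emulsifiable concentrates, diluted in water and sprayed post-emergence at 150 g(a.i.)/ha when corn had 2 to 5 leaves. Each treatment was replicated 4 times on 20 m^2 plots. Barnyard grass control was rated on a 1-9 damage scale.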

Convolvulus arvensis = assay: Field test for weed control in a corn field; conditions: 150 g a.i./ha, after treatment
Outline: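 Field trial of weed control against Convolvulus arvensis in corn, run following GB/T 17980.42-2000. Test agents were formulated as 10% emulsifiable concentrates and sprayed in water at 150 g(a.i.)/ha when corn plants had 2 to 5 leaves. Each treatment was replicated 4 times on 20 m^2 plots, and 25% mesotrione oil dispersion served as the control agent.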

Acalypha australis = assay: Field test for weed control in a corn field; conditions: 150 g a.i./ha, after treatment
Outline: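 Post-emergence field trial in a corn field following GB/T 17980.42-2000. Test compounds were formulated as 10% emulsifiable concentrates, diluted in water, and sprayed at 150 g(a.i.)/ha when corn had 2 to 5 leaves, with 4 replicates on 20 m^2 plots. Mesotrione 25% oil dispersion served as the control agent. Weed control was scored on a 1-9 scale.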

Digitaria sanguinalis [16] = assay: Field test for weed control in a corn field; conditions: 150 g a.i./ha, after treatment
Outline: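 Field trial in a corn field following GB/T 17980.42-2000. Test compounds were formulated as 10% emulsifiable concentrates, diluted in water and sprayed post-emergence at 150 g(a.i.)/ha when corn had 2 to 5 leaves, with 4 replicates on 20 m^2 plots. Control of Digitaria sanguinalis was scored on a 1-9 scale based on weed damage relative to the untreated blank area.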

Solanum nigrum = assay: Field test for weed control in a corn field; conditions: 150 g a.i./ha, 30 days after treatment
Outline: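 Post-emergence weed control was tested in a corn field following GB/T 17980.42-2000. Compounds were made into 10% emulsifiable concentrates, diluted in water and sprayed at 150 g(a.i.)/ha when corn had 2 to 5 leaves after sowing, in 20 m^2 plots with 4 replicates. Effects on Solanum nigrum were graded on a 1-9 scale relative to the blank control area.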

nutgrass flatsedge = assay: Field test for weed control in a corn field; conditions: 150 g a.i./ha, after treatment
Outline: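 A corn field efficacy trial following GB/T 17980.42-2000 assessed post-emergence control of nutgrass flatsedge. Test compounds were formulated as 10% emulsifiable concentrates, diluted in water, and sprayed at 150 g(a.i.)/ha when the corn had 2 to 5 leaves. Each treatment had 4 replicates on 20 m^2 plots. Herbicidal activity was graded on a 1-9 scale by damage symptoms and severity.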

Cc1ccc(CNC(=O)c2cccc(C)c2)cc1 [Compound B15]
Herbicidal Activity Amaranthus retroflexus (Amaranthus retroflexus [1]): 1 | Herbicidal Activity Piemarker (Piemarker [2]): 1 | Herbicidal Activity Green bristlegrass (green bristlegrass [3]): 1 | Herbicidal Activity Barnyard grass (Barnyard grass [4]): 1 | Herbicidal Activity Digitaria sanguinalis (Digitaria sanguinalis [5]): 1 | Herbicidal Activity Humulus scandens (Humulus scandens [6]): 1 | Herbicidal Activity Amaranthus retroflexus (Amaranthus retroflexus [7]): 2 (equivalent to 0 to 2.5% of the weed in the blank control area) | Herbicidal Activity Digitaria sanguinalis (Digitaria sanguinalis [8]): 1 | Herbicidal Activity Piemarker (Piemarker [9]): 1 | Herbicidal Activity Green bristlegrass (green bristlegrass [10]): 2 (equivalent to 0 to 2.5% of the weed in the blank control area) | Herbicidal Activity Barnyard grass (Barnyard grass [11]): 1 | Herbicidal Activity Humulus scandens (Humulus scandens [12]): 3 (equivalent to 2.6 to 5% of the weed in the blank control area) | Herbicidal activity 15 days after treatment Gramineae (Gramineae): 2 (equivalent to 0 to 2.5% of the weed in the blank control area) | Herbicidal activity 30 days after treatment Gramineae (Gramineae): 1 | Herbicidal activity 15 days after treatment Cyperaceae (Cyperaceae): 1 | Herbicidal activity 30 days after treatment Cyperaceae (Cyperaceae): 2 (equivalent to 0 to 2.5% of the weed in the blank control area) | Herbicidal activity 15 days after treatment Broadleaf weed (Broadleaf weed): 1 | Herbicidal activity 30 days after treatment Broadleaf weed (Broadleaf weed): 1 | Post-emergence weed control effect, Amaranthus retroflexus (Amaranthus retroflexus [13]): 1 | Post-emergence weed control effect, Goose grass (goosegrass): 2 (equivalent to 0 to 2.5% of the weed in the blank control area) | Post-emergence weed control effect, Chenopodium album (Chenopodium album): 1 | Post-emergence weed control effect, Green bristlegrass (green bristlegrass [14]): 2 (equivalent to 0 to 2.5% of the weed in the blank control area) | Post-emergence weed control effect, Portulaca oleracea (Portulaca oleracea): 1 | Post-emergence weed control effect, Barnyard grass (Barnyard grass [15]): 1 | Post-emergence weed control effect, Convolvulus arvensis (Convolvulus arvensis): 2 (equivalent to 0 to 2.5% of the weed in the blank control area) | Post-emergence weed control effect, Acalypha australis (Acalypha australis): 1 | Post-emergence weed control effect, Digitaria sanguinalis (Digitaria sanguinalis [16]): 2 (equivalent to 0 to 2.5% of the weed in the blank control area) | Post-emergence weed control effect, Solanum nigrum (Solanum nigrum): 1 | Post-emergence weed control effect, Nutgrass flatsedge (nutgrass flatsedge): 2 (equivalent to 0 to 2.5% of the weed in the blank control area)

Cc1cccc(C(=O)NCc2cccc(F)c2)n1 [Compound B22]
Herbicidal Activity Amaranthus retroflexus (Amaranthus retroflexus [1]): 1 | Herbicidal Activity Piemarker (Piemarker [2]): 1 | Herbicidal Activity Green bristlegrass (green bristlegrass [3]): 1 | Herbicidal Activity Barnyard grass (Barnyard grass [4]): 1 | Herbicidal Activity Digitaria sanguinalis (Digitaria sanguinalis [5]): 1 | Herbicidal Activity Humulus scandens (Humulus scandens [6]): 1 | Herbicidal Activity Amaranthus retroflexus (Amaranthus retroflexus [7]): 1 | Herbicidal Activity Digitaria sanguinalis (Digitaria sanguinalis [8]): 1 | Herbicidal Activity Piemarker (Piemarker [9]): 1 | Herbicidal Activity Green bristlegrass (green bristlegrass [10]): 1 | Herbicidal Activity Barnyard grass (Barnyard grass [11]): 1 | Herbicidal Activity Humulus scandens (Humulus scandens [12]): 2 (equivalent to 0 to 2.5% of the weed in the blank control area) | Herbicidal activity 15 days after treatment Gramineae (Gramineae): 1 | Herbicidal activity 30 days after treatment Gramineae (Gramineae): 1 | Herbicidal activity 15 days after treatment Cyperaceae (Cyperaceae): 1 | Herbicidal activity 30 days after treatment Cyperaceae (Cyperaceae): 1 | Herbicidal activity 15 days after treatment Broadleaf weed (Broadleaf weed): 1 | Herbicidal activity 30 days after treatment Broadleaf weed (Broadleaf weed): 1 | Post-emergence weed control effect, Amaranthus retroflexus (Amaranthus retroflexus [13]): 1 | Post-emergence weed control effect, Goose grass (goosegrass): 2 (equivalent to 0 to 2.5% of the weed in the blank control area) | Post-emergence weed control effect, Chenopodium album (Chenopodium album): 1 | Post-emergence weed control effect, Green bristlegrass (green bristlegrass [14]): 1 | Post-emergence weed control effect, Portulaca oleracea (Portulaca oleracea): 1 | Post-emergence weed control effect, Barnyard grass (Barnyard grass [15]): 1 | Post-emergence weed control effect, Convolvulus arvensis (Convolvulus arvensis): 1 | Post-emergence weed control effect, Acalypha australis (Acalypha australis): 1 | Post-emergence weed control effect, Digitaria sanguinalis (Digitaria sanguinalis [16]): 2 (equivalent to 0 to 2.5% of the weed in the blank control area) | Post-emergence weed control effect, Solanum nigrum (Solanum nigrum): 2 (equivalent to 0 to 2.5% of the weed in the blank control area) | Post-emergence weed control effect, Nutgrass flatsedge (nutgrass flatsedge): 2 (equivalent to 0 to 2.5% of the weed in the blank control area)
